From ChEMBL document CHEMBL1140952 (J Med Chem, 2009) come the findings set out here.

The nature of data set [1]: Antiproliferative activity against Met-dependent human GTL16 cells after 72 hrs by MTS assay. Conditions: GTL 16, 72 h. The format is functional, cell-based.
Data set [2] has as its target Hepatocyte growth factor receptor (Homo sapiens, UniProt P08581). Description: Inhibition of MET.
For a further data set, the target named is Cytochrome P450 3A4 (Homo sapiens, UniProt P08684). Description: Inhibition of CYP3A4. The format is ADME.
The target of the next data set is Cytochrome P450 2C9 (Homo sapiens, UniProt P11712). As to the kind of experiment: Inhibition of CYP2C9. It counts as ADME.
In the next data set the target is Cytochrome P450 1A2 (Homo sapiens, UniProt P05177). As to the kind of experiment: Inhibition of CYP1A2. It counts as ADME.
For the next data set, the target named is Cytochrome P450 2D6 (Homo sapiens, UniProt P10635). Description: Inhibition of CYP2D6. It counts as ADME.
In a further data set the target is Cytochrome P450 2C19 (Homo sapiens, UniProt P33261). Description: Inhibition of CYP2C19. It counts as ADME.
Data set [3] is described as follows: Metabolic stability in mouse liver microsomes assessed per mg of protein. It counts as ADME, Microsome.

Hepatocyte growth factor receptor, sequence (P08581 whole entry): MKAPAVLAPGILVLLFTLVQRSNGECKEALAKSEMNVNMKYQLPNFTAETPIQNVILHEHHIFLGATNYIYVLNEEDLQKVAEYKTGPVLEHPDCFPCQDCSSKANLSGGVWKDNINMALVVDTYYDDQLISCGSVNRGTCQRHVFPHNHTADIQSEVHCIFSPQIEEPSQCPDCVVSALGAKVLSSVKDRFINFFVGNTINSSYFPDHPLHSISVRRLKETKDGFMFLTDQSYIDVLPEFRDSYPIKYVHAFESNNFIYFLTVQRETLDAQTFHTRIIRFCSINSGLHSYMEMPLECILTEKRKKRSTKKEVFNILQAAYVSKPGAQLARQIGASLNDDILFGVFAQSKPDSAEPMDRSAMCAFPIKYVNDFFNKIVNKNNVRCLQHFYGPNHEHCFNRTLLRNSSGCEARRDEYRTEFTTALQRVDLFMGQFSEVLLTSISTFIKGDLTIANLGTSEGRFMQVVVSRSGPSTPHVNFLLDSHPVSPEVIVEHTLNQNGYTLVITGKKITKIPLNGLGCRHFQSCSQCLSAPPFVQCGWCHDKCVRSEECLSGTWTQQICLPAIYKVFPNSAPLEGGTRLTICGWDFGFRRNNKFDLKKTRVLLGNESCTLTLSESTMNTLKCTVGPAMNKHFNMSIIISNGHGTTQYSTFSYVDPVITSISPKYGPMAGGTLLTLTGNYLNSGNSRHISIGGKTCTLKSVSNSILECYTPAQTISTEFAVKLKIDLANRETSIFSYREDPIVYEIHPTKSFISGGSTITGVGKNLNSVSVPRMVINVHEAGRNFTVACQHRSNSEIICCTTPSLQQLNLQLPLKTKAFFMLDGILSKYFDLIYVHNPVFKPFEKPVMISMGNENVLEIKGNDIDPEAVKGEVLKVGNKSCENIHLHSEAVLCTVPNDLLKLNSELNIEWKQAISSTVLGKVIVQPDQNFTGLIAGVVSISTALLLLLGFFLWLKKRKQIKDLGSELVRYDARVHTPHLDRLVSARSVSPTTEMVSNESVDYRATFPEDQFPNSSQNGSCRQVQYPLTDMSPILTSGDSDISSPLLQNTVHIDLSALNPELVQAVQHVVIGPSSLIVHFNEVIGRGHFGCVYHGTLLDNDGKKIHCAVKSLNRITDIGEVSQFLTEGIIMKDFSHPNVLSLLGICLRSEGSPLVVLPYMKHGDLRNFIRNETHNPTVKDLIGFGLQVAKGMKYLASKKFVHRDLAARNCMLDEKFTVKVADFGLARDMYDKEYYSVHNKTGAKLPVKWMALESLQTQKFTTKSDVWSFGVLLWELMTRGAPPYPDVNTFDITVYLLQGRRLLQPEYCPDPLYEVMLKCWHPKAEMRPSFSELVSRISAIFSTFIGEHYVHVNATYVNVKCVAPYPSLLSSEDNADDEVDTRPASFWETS
Cytochrome P450 3A4, sequence (P08684 whole entry): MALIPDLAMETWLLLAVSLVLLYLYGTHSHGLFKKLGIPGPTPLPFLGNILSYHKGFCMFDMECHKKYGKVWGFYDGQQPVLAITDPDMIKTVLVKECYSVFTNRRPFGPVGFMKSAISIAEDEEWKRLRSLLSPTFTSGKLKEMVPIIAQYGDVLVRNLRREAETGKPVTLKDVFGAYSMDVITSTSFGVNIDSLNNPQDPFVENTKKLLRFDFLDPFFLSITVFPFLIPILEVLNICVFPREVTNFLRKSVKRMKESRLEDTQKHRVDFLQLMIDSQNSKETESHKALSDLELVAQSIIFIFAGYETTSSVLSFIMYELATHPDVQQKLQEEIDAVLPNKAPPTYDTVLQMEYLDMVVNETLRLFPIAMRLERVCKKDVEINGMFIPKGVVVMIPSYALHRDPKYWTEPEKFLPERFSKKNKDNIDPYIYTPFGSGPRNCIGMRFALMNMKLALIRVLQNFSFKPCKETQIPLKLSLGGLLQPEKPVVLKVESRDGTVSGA
Cytochrome P450 1A2, sequence (P05177 whole entry): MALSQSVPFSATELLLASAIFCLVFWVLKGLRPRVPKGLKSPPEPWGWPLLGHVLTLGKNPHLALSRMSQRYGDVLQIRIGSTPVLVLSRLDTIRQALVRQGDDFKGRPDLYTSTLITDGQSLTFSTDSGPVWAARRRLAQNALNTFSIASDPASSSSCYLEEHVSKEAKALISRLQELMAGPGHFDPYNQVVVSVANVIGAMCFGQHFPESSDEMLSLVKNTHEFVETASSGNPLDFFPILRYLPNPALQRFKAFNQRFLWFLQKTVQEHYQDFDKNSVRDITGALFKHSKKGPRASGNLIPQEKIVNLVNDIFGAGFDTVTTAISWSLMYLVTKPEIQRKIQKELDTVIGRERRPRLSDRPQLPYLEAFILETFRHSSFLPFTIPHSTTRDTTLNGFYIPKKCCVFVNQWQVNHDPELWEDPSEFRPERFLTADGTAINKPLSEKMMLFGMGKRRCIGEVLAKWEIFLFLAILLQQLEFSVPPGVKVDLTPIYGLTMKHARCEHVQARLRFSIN
Cytochrome P450 2D6, sequence (P10635 whole entry): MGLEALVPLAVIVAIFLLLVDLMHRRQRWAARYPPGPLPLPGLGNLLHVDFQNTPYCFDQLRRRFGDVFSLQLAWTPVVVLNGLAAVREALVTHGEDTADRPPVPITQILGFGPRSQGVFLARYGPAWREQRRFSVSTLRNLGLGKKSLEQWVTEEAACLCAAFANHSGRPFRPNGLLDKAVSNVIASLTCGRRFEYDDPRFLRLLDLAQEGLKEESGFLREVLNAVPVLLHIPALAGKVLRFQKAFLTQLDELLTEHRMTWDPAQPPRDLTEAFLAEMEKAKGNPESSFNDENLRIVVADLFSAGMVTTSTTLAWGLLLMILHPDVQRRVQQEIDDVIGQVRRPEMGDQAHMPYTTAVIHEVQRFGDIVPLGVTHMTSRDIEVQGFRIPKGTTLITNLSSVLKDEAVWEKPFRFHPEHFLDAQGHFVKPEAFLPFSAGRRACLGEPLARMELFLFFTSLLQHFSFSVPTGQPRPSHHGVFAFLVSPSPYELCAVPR
Cytochrome P450 2C9, sequence (P11712 whole entry): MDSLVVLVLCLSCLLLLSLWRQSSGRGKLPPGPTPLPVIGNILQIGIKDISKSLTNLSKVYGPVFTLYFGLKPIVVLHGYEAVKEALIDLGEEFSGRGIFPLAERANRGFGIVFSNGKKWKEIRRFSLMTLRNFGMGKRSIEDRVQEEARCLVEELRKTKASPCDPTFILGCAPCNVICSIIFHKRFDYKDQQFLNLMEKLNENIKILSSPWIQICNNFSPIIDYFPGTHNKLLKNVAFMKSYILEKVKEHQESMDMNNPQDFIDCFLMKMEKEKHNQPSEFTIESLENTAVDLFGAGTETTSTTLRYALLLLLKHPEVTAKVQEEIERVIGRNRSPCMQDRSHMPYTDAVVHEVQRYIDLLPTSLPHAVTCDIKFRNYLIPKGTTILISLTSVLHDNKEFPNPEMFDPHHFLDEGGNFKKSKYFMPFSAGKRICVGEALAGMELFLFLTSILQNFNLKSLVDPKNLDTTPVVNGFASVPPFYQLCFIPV
Cytochrome P450 2C19, sequence (P33261 whole entry): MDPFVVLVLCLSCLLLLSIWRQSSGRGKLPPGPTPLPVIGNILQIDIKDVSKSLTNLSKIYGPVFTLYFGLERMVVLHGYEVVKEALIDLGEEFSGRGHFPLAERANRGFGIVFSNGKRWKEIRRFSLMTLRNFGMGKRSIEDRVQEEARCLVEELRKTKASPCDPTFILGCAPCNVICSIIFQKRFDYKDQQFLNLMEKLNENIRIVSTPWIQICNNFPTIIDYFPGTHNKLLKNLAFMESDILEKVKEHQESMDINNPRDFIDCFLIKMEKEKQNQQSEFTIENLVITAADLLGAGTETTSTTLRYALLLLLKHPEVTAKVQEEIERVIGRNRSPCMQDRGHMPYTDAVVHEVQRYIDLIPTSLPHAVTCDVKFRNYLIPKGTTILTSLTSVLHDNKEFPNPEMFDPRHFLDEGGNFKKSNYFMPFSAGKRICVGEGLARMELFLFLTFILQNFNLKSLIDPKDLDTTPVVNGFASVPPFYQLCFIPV

As to `NCC#Cc1c(Oc2ccc(NC(=O)c3cccn(-c4ccc(F)cc4)c3=O)cc2F)ccnc1N`, the IC50 in data set [1] is 210 nM; in data set [2] it was 3.8 nM.
As to `CC(C)Oc1ccn(-c2ccc(F)cc2)c(=O)c1C(=O)Nc1ccc(Oc2ccnc(N)c2Cl)c(F)c1`, the figures for the IC50 in data set [1] and in data set [2] were 140 nM and 3.2 nM, respectively.
For `Nc1nccc(Oc2ccc(NC(=O)c3c(OCCO)ccn(-c4ccc(F)cc4)c3=O)cc2F)c1Cl`, the figures for the IC50 in data set [1] and in data set [2] were 250 nM and 2.6 nM, respectively.
As to `C#Cc1c(Oc2ccc(NC(=O)c3cccn(-c4ccc(F)cc4)c3=O)cc2F)ccnc1N`, the IC50 on Cytochrome P450 3A4 is less than 1000 nM; in data set [1], 31 nM; in data set [2], 1 nM.
Consider `CC(C)c1c(Oc2ccc(NC(=O)c3cccn(-c4ccc(F)cc4)c3=O)cc2F)ccnc1N`, for which the values for the IC50 in data set [1] and in data set [2] were 120 nM and 3.4 nM, respectively.
With `Nc1nccc(Oc2ccc(NC(=O)c3cccn(-c4ccc(F)cc4)c3=O)cc2F)c1Cl`, the IC50 against Cytochrome P450 2C9 is 7000 nM; on Cytochrome P450 3A4, 4000 nM; on Cytochrome P450 1A2 it was greater than 20000 nM; on Cytochrome P450 2D6, greater than 20000 nM; at Cytochrome P450 2C19 it was greater than 20000 nM; in data set [1], 57 nM. Also, half-maximal inhibition in data set [2] (IC50) was put at 1 nM. The compound further had an Activity in data set [3] of 0.012 nmol/min/mg.
